Results reported in article PMC6777825, “Differential scanning fluorimetric analysis of the amino-acid binding to taste receptor using a model receptor protein, the ligand-binding domain of fish T1r2a/T1r3” (PLoS ONE, 2019).
Like-named read-outs stand apart in the source and are kept apart here.

Assays:
[1] = target: T1r2a/T1r3 full-length receptor (Oryzias latipes, UniProt A0A173M094+A0A173M0G2); assay: Ca2+-flux receptor response assay in Flip-In 293 cells stably expressing full-length T1r2a, T1r3 and Gα16-gust44; type: cell-based, O. latipes; details: for ΔRFU: average ± s.e.m.
Description: The Ca^2+-flux assay was performed using Flip-In 293 cell line (Life Technologies) stably expressing full-length T1r2a, T1r3, and Gα16-gust44 as described previously. The response stimulated by either 5 or 10 mM amino acid was represented asΔRFU (delta relative fluorescence unit) defined as the maximum fluorescence intensity induced by the addition of the amino acid, subtracted with that of an assay buffer in the absence of amino acid.

[2] = cited from earlier work; for Hydropathy Index: hydrophobicity/hydrophilicity, ref Kyte & Doolittle, J. Mol. Biol., 157, 105 (1982); for pI: ref Handbook of Chemistry and Physics, CRC Press; for logKd_CW (polarity): transfer from cyclohexane to an aqueous solution, ref Radzicka & Wolfenden, Biochemistry, 27, 1664 (1988); for Es'c (steric effects) / πα (hydrophobicity) / HP (hydration potential): α-substituent group; for Es'c (steric effects) / πα (hydrophobicity): ref Akamatsu et al., J. Pharm. Sci., 83, 1026 (1994); for HP (hydration potential): ref Wolfenden et al., Biochemistry, 20, 849 (1981)
medaka T1r2a/T1r3LBD = medaka T1r2a/T1r3LBD (Oryzias latipes, UniProt A0A173M094+A0A173M0G2); assay: Differential scanning fluorimetry (DSF) thermal shift ligand-binding assay; set-up: species or system O. latipes; details: for ΔTm: average ± s.e.m., n = 4; for effect on thermal stability / Tm shift of T1r2a/T1r3LBD (in words): DSF, 0.1-10 mM amino acid; for Tm shift (in words): adding up to 10 mM
Description: The protein sample was prepared as described previously. Briefly, Drosophila S2 cells (Invitrogen) stably expressing C-terminal FLAG-tagged T1r2aLBD and T1r3LBD [11, 21] were cultured in ExpressFiveSFM (LifeTechnologies) for five days at 27 °C. The T1r2a/T1r3-LBD protein was purified from the culture medium by the use of ANTI-FLAG M2 Affinity Gel (SIGMA). The purified protein was dialyzed against the assay buffer (20 mM Tris-HCl, 300 mM NaCl, 2 mM CaCl2, pH 8.0).
The protein sample (~1 μg) was mixed with Protein Thermal Shift Dye (Applied Biosystems) and 10~10,000 μM concentration of each amino acid in 20 μL of assay buffer and loaded to a MicroAmpR Fast Optical 48-Well Reaction Plate (Applied Biosystems). Specifically, to minimize the changes of the chemical and optical condition, the amino acid solutions were prepared by the exact same buffer used for the final dialysis of the protein, followed by the re-adjustment of the pH to ~ 8.0 by addition of either NaOH or HCl, and mixed with the protein diluted with the same buffer.
Fluorescent intensity was measured by the StepOne Real-Time PCR System (Applied Biosystems). The temperature was raised from 25 °C to 99 °C with a velocity of 0.022 °C/sec. The reporter and quencher for detection were set as “ROX” and “none”, respectively. Apparent melting transition temperature (Tm) was determined by the use of the maximum of the derivatives of the melt curve (dFluorescence/dT) by Protein Thermal Shift Software version 1.3 (Applied Biosystems).
The apparent dissociation constant (Kd-app) derived from the DSF results was estimated based on Eq 1 proposed by Schellman, assuming that the unfolding of the protein is reversible: ΔTm=Tm−T0=TmT0R/ΔH^0ln(1+[L]/Kd-app) (1) where [L] is the ligand concentration; Tm and T0 are the apparent melting transition temperatures in the presence and absence of the ligand; R is the gas constant; ΔH^0 is the enthalpy of unfolding at T0, assuming that there are no significant variations under the tested conditions. If the melt curves show biphasic profiles, the second (or the right side) Tm values were adopted for calculation, as described in the Results section.
For multiple regression analyses shown in Fig 2B, the apparent Tm values determined at different ligand concentrations were fitted to Eq 1 by using KaleidaGraph (Synergy Software), assuming that the change of the dissociation constant accompanied by the Tm shift is negligible.

[3] = 5 mM amino acid, n = 6 (n = 12 for L-glutamine)
[4] = from ΔTm at 10 mM via Eq 1, T0 326.1 K, ΔH0 72.1 kcal mol-1, read-out: Kd-app estimated at a single ligand concentration
[5] = estimated from ΔRFU at 10 mM by Hill equation, ΔRFUmax 104.3, read-out: EC50-est
[6] = from response at 10 mM, log 1/EC50-est
[7] = from ΔTm at 0.1 mM via Eq 1, T0 326.1 K, ΔH0 72.1 kcal mol-1, read-out: Kd-app estimated at a single ligand concentration
[8] = from ΔTm at 1 mM via Eq 1, T0 326.1 K, ΔH0 72.1 kcal mol-1, read-out: Kd-app estimated at a single ligand concentration
[9] = log 1/Kd-app, converted from S1 Table values (10 mM; L-Ala 1 mM, L-Gln 0.1 mM)
[10] = from response at 10 mM, log 1/EC50-est, read-out: pEC50-est (converted)
[11] = estimated from ΔRFU at 5 mM by Hill equation, ΔRFUmax 104.3, read-out: EC50-est

Chain of medaka T1r2a/T1r3LBD (A0A173M094 entry or part of it): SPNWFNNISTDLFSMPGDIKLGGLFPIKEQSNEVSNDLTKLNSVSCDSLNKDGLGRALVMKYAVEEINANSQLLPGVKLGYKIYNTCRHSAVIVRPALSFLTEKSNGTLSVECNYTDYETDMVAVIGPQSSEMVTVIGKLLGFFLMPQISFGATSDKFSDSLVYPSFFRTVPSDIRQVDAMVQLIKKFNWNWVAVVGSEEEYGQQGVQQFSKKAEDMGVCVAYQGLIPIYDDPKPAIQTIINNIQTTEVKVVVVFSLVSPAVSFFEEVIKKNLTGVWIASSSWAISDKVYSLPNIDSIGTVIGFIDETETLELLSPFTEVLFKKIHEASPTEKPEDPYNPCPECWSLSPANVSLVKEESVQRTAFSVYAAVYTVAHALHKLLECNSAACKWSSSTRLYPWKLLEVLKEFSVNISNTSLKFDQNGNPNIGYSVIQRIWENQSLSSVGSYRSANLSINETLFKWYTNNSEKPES
Chain of medaka T1r2a/T1r3LBD (A0A173M0G2 entry or part of it): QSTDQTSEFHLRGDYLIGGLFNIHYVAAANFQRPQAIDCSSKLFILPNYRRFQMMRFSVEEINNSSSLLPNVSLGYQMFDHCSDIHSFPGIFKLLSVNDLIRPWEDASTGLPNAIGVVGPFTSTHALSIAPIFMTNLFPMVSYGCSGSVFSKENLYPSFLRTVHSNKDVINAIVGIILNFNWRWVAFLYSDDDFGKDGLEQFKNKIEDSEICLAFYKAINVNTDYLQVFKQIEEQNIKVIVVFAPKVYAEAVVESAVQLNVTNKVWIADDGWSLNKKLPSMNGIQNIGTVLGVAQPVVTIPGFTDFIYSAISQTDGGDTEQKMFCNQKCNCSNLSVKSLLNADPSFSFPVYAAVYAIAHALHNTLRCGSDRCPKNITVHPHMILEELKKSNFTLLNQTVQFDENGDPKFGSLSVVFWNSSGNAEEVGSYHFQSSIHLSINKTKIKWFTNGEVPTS
Chain of T1r2a/T1r3 full-length receptor (A0A173M0G2 entry or part of it): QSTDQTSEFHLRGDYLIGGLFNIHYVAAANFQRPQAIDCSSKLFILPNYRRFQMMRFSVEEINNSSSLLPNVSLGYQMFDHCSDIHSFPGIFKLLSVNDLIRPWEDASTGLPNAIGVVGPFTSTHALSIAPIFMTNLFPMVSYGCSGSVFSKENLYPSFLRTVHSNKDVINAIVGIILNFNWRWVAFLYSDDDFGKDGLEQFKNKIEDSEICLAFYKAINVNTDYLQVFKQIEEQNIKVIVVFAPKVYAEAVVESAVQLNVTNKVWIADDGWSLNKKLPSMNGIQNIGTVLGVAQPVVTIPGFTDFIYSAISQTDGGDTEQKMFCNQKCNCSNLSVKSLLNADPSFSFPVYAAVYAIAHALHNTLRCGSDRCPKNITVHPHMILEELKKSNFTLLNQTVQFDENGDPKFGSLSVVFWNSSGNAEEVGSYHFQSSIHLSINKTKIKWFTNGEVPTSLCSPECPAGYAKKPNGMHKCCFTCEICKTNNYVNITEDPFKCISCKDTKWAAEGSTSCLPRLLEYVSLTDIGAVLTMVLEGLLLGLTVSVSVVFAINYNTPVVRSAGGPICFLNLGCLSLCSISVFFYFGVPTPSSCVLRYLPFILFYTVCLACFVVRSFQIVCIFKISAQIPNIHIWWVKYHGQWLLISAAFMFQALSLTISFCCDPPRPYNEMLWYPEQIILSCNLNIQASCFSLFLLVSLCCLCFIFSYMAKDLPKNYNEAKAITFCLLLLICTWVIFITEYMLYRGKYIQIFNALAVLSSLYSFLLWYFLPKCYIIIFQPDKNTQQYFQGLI
Chain of T1r2a/T1r3 full-length receptor (A0A173M094 entry or part of it): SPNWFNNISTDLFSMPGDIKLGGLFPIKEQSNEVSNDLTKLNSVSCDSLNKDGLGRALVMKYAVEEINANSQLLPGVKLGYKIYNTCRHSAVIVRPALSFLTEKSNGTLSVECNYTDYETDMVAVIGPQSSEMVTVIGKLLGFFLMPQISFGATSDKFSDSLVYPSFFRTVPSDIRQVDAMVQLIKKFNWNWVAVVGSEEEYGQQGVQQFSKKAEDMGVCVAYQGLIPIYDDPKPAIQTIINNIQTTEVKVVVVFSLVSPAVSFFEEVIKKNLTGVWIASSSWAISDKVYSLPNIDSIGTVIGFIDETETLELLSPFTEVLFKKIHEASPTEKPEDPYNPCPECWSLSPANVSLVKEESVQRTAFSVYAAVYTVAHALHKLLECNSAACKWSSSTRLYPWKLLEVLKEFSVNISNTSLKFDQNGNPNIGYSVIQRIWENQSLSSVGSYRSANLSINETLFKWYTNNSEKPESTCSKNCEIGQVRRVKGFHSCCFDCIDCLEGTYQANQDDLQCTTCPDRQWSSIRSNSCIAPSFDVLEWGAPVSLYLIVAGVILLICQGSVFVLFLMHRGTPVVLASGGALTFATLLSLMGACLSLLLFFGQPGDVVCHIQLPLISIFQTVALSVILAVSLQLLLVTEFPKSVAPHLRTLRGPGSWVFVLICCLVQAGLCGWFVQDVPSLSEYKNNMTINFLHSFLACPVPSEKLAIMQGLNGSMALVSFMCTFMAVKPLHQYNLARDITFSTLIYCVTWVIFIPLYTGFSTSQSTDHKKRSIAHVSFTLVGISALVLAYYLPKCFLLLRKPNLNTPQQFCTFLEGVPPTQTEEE

Compound | ΔRFU [1, 3] | ΔRFU ([1]; 10 mM amino acid, n = 6) | Hydropathy Index [2] | pI [2] | logKd_CW (polarity) [2] | Es'c (steric effects) [2] | πα (hydrophobicity) [2] | HP (hydration potential) [2] | ΔTm (medaka T1r2a/T1r3LBD; 0.1 mM amino acid) | ΔTm (medaka T1r2a/T1r3LBD; 1 mM amino acid) | ΔTm (medaka T1r2a/T1r3LBD; 10 mM amino acid) | potency estimated from few doses (medaka T1r2a/T1r3LBD; [4]) | EC50 [1, 5] | pEC50-est [1, 6] | pKd-app (medaka T1r2a/T1r3LBD; [9]) | further results
N[C@@H](CC(=O)O)C(=O)O [L-Asp, L-aspartate] | -4.00 ± 1.10 | -9.43 ± 1.83 | -3.5 | 2.77 | 3.27 | -0.98 | 0.05 | -10.95 | -0.06 ± 0.17 K | -1.71 ± 0.19 K | 0.74 ± 0.05 K | 34.9 mM | – | – | – | effect on thermal stability / Tm shift of T1r2a/T1r3LBD (in words) (medaka T1r2a/T1r3LBD): destabilized the protein; Kd (medaka T1r2a/T1r3LBD; log 1/Kd-app, converted from S1 Table values (10 mM; L-Ala 1 mM, L-Gln 0.1 mM), read-out: pKd-app (converted)): 34.7 mM
CSCC[C@H](N)C(=O)O [L-Met] | -2.52 ± 1.72 | 21.8 ± 7.73 | 1.9 | 5.74 | -1.73 | -1.03 | 0.99 | -1.48 | 0.45 ± 0.11 K | 6.17 ± 0.05 K | 8.85 ± 0.06 K | 0.562 mM | 37.9 mM | 1.42 | 3.25 | potency estimated from few doses (medaka T1r2a/T1r3LBD; [7]): 0.604 mM; potency estimated from few doses (medaka T1r2a/T1r3LBD; [8]): 0.146 mM
O=C(O)[C@@H]1CCCN1 [L-Pro, L-proline] | 2.90 ± 1.93 | 45.1 ± 7.06 | – | – | – | – | – | – | -0.15 ± 0.04 K | 0.04 ± 0.07 K | 7.24 ± 0.02 K | – | 13.2 mM | – | – | EC50 [1, 10]: 13.2 mM; potency estimated from few doses (medaka T1r2a/T1r3LBD; read-out: Kd-app estimated at a single ligand concentration, from ΔTm at 1 mM via Eq 1, T0 326.1 K, ΔH0 72.1 kcal mol-1): 79.9 mM; potency estimated from few doses (medaka T1r2a/T1r3LBD; read-out: Kd-app estimated at a single ligand concentration, from ΔTm at 10 mM via Eq 1, T0 326.1 K, ΔH0 72.1 kcal mol-1): 0.985 mM
C[C@@H](N)C(=O)O [D-Ala, D-alanine] | 7.08 ± 2.16 | 23.6 ± 8.83 | – | – | – | – | – | – | 0.15 ± 0.05 K | -0.33 ± 0.07 K | -1.03 ± 0.09 K | – | 34.2 mM | – | – | full-length receptor response (in words) ([1]; 5 or 10 mM, compared to enantiomer L-alanine): significantly weak responses; EC50 [1, 11]: 68.7 mM; EC50 ([1]; from response at 5 mM, log 1/EC50-est, read-out: pEC50-est (converted)): 69.2 mM; EC50 [1, 10]: 33.9 mM; effect on thermal stability / Tm shift of T1r2a/T1r3LBD (in words) (medaka T1r2a/T1r3LBD): thermal destabilization; Tm shift (in words) (medaka T1r2a/T1r3LBD; listed as D-alanine): did not induce a significant Tm shift; Tm shift (in words) (medaka T1r2a/T1r3LBD; listed as d-alanine): no substantial Tm shifts; potency estimated from few doses (medaka T1r2a/T1r3LBD; read-out: Kd-app estimated at a single ligand concentration, from ΔTm at 0.1 mM via Eq 1, T0 326.1 K, ΔH0 72.1 kcal mol-1): 1.95 mM
N[C@@H](Cc1ccccc1)C(=O)O [L-Phe] | 2.08 ± 2.32 | 22.4 ± 5.78 | 2.8 | 5.48 | -2.19 | -0.9 | 1.78 | -0.76 | 0.30 ± 0.04 K | 1.04 ± 0.12 K | 3.53 ± 0.05 K | 4.37 mM | 36.5 mM | 1.44 | 2.36 | potency estimated from few doses (medaka T1r2a/T1r3LBD; [7]): 0.918 mM; potency estimated from few doses (medaka T1r2a/T1r3LBD; [8]): 2.37 mM
N[C@@H](CO)C(=O)O [L-Ser] | 11.5 ± 2.07 | 33.5 ± 7.59 | -0.8 | 5.68 | 2.49 | -0.48 | -0.19 | -5.06 | -0.14 ± 0.03 K | -1.20 ± 0.03 K | 7.32 ± 0.06 K | 0.956 mM | 21.1 mM | 1.67 | 3.02 | EC50 [1, 11]: 40.5 mM; pEC50-est ([1]; from response at 5 mM, log 1/EC50-est): 1.39
C[C@@H](O)[C@H](N)C(=O)O [L-Thr] | 3.20 ± 1.51 | 18.2 ± 6.01 | -0.7 | 5.6 | 1.89 | -0.73 | 0.07 | -4.88 | -0.06 ± 0.09 K | -1.27 ± 0.08 K | 6.99 ± 0.09 K | 1.08 mM | 47.4 mM | 1.32 | 2.97 | –
NCCCC[C@H](N)C(=O)O [L-Lys, L-lysine] | 8.68 ± 4.29 | 18.5 ± 8.01 | – | – | – | – | – | – | -0.04 ± 0.03 K | -0.40 ± 0.17 K | -3.83 ± 0.30 K | – | – | – | – | EC50 ([1]; EC50-est, estimated from ΔRFU at 5 mM by Hill equation, ΔRFUmax 104.3): 55.1 mM; EC50 ([1]; EC50-est, estimated from ΔRFU at 10 mM by Hill equation, ΔRFUmax 104.3): 46.5 mM; EC50 ([1]; pEC50-est, from response at 5 mM, log 1/EC50-est): 55 mM; EC50 ([1]; pEC50-est, from response at 10 mM, log 1/EC50-est): 46.8 mM; effect on thermal stability / Tm shift of T1r2a/T1r3LBD (in words) (medaka T1r2a/T1r3LBD; listed as L-lysine): thermal destabilization; effect on thermal stability / Tm shift of T1r2a/T1r3LBD (in words) (medaka T1r2a/T1r3LBD; listed as lysine): destabilized the protein
